Assays:
[1] = system: EB-3; test: cells; assay type: functional, cell-based, Homo sapiens; conditions: Homo sapiens, EB-3;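 further: human EB-3 cells, growth inhibition read out via a cell viability assay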
Description: SANGER: Inhibition of human EB-3 cell growth in a cell viability assay.

[2] = system: EW-12; test: SANGER: Inhibition of human EW-12 cell growth in a cell viability assay.; assay type: functional, cell-based
[3] = system: IMR-5; test: cells; assay type: functional, cell-based, Homo sapiens; conditions: Homo sapiens, IMR-5;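 further: growth inhibition of human IMR-5 cells, read out with a cell viability assay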
Description: SANGER: Inhibition of human IMR-5 cell growth in a cell viability assay.

[4] = system: Kasumi 1; test: cells; assay type: functional, cell-based, Homo sapiens; conditions: Homo sapiens, Kasumi 1;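 further: growth inhibition of human Kasumi-1 cells, read out by a cell viability assay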
Description: SANGER: Inhibition of human KASUMI-1 cell growth in a cell viability assay.

[5] = system: NB7; test: cells; assay type: functional, cell-based, Homo sapiens; conditions: Homo sapiens, NB7;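 further: growth inhibition of NB7 cells, read out with a cell viability assay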
Description: SANGER: Inhibition of human NB7 cell growth in a cell viability assay.

[6] = system: NCI-H322M; test: cells; assay type: functional, cell-based, Homo sapiens; conditions: Homo sapiens, NCI-H322M;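 further: cell viability assay measuring inhibition of growth of human NCI-H322M cells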
Description: SANGER: Inhibition of human NCI-H322M cell growth in a cell viability assay.

[7] = system: Raji; test: cells; assay type: functional, cell-based, Homo sapiens; conditions: Homo sapiens, Raji;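 further: cell viability assay measuring inhibition of Raji cell growth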
Description: SANGER: Inhibition of human Raji cell growth in a cell viability assay.

[8] = system: WSU-NHL; test: cells; assay type: functional, cell-based, Homo sapiens; conditions: Homo sapiens, WSU-NHL;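 further: growth inhibition of human WSU-NHL cells, read out with a cell viability assay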
Description: SANGER: Inhibition of human WSU-NHL cell growth in a cell viability assay.

[9] = system: CMK; test: cells; assay type: functional, cell-based, Homo sapiens; conditions: Homo sapiens, CMK;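 further: growth inhibition of CMK cells, read out as cell viability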
Description: SANGER: Inhibition of human CMK cell growth in a cell viability assay.

[10] = system: COR-L23; test: cells; assay type: functional, cell-based, Homo sapiens; conditions: Homo sapiens, COR-L23;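 further: cell viability assay measuring how strongly compounds suppress growth of COR-L23 cells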
Description: SANGER: Inhibition of human COR-L23 cell growth in a cell viability assay.

[11] = system: CaR-1; test: cells; assay type: functional, cell-based, Homo sapiens; conditions: Homo sapiens, CaR-1;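 further: growth inhibition of human CaR-1 cancer cells, read out with a cell viability assay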
Description: SANGER: Inhibition of human CaR-1 cell growth in a cell viability assay.

[12] = system: H9; test: cells; assay type: functional, cell-based, Homo sapiens; conditions: Homo sapiens, H9
Description: SANGER: Inhibition of human H9 cell growth in a cell viability assay.

[13] = system: KP-4; test: cells; assay type: functional, cell-based, Homo sapiens; conditions: Homo sapiens, KP-4;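 further: human KP-4 cells, with growth inhibition read out through a cell viability assay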
Description: SANGER: Inhibition of human KP-4 cell growth in a cell viability assay.

[14] = system: KU-19-19; test: cells; assay type: functional, cell-based, Homo sapiens; conditions: Homo sapiens, KU-19-19
Description: SANGER: Inhibition of human KU-19-19 cell growth in a cell viability assay.

[15] = system: LU-135; test: cells; assay type: functional, cell-based, Homo sapiens; conditions: Homo sapiens, LU-135
Description: SANGER: Inhibition of human LU-135 cell growth in a cell viability assay.

[16] = system: LU-99A; test: cells; assay type: functional, cell-based, Homo sapiens; conditions: Homo sapiens, LU-99A;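 further: growth inhibition of LU-99A cells, read out with a cell viability assay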
Description: SANGER: Inhibition of human LU-99A cell growth in a cell viability assay.

[17] = system: MCF7; test: cells; assay type: functional, cell-based, Homo sapiens; conditions: Homo sapiens, MCF7;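 further: growth inhibition of human MCF7 cells, read out with a cell viability assay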
Description: SANGER: Inhibition of human MCF7 cell growth in a cell viability assay.

[18] = system: NCI-H1666; test: cells; assay type: functional, cell-based, Homo sapiens; conditions: Homo sapiens, NCI-H1666;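 further: growth inhibition of the cell line, read out with a cell viability assay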
Description: SANGER: Inhibition of human NCI-H1666 cell growth in a cell viability assay.

[19] = system: NCI-H2228; test: cells; assay type: functional, cell-based, Homo sapiens; conditions: Homo sapiens, NCI-H2228;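 further: growth inhibition of human NCI-H2228 cells, read out by a cell viability assay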
Description: SANGER: Inhibition of human NCI-H2228 cell growth in a cell viability assay.

[20] = system: NCI-H2291; test: cells; assay type: functional, cell-based, Homo sapiens; conditions: Homo sapiens, NCI-H2291
Description: SANGER: Inhibition of human NCI-H2291 cell growth in a cell viability assay.

[21] = system: NCI-H630; test: cells; assay type: functional, cell-based, Homo sapiens; conditions: Homo sapiens, NCI-H630;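 further: growth inhibition of NCI-H630 cells, read out with a cell viability assay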
Description: SANGER: Inhibition of human NCI-H630 cell growth in a cell viability assay.

[22] = system: OAW-42; test: cells; assay type: functional, cell-based, Homo sapiens; conditions: Homo sapiens, OAW-42;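 further: growth inhibition of OAW-42 cells, read out with a cell viability assay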
Description: SANGER: Inhibition of human OAW-42 cell growth in a cell viability assay.

[23] = system: OE19; test: cells; assay type: functional, cell-based, Homo sapiens; conditions: Homo sapiens, OE19;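 further: growth inhibition of OE19 cells, measured through a cell viability read-out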
Description: SANGER: Inhibition of human OE19 cell growth in a cell viability assay.

[24] = system: OVCAR-3; test: cells; assay type: functional, cell-based, Homo sapiens; conditions: Homo sapiens, OVCAR-3;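 further: growth inhibition of human OVCAR-3 cells, determined by a cell viability assay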
Description: SANGER: Inhibition of human OVCAR-3 cell growth in a cell viability assay.

[25] = system: Panc1005; test: cells; assay type: functional, cell-based, Homo sapiens; conditions: Homo sapiens, Panc1005;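 further: growth inhibition of human PANC-10-05 cells, measured by a cell viability assay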
Description: SANGER: Inhibition of human PANC-10-05 cell growth in a cell viability assay.

[26] = system: RH-18; test: cells; assay type: functional, cell-based, Homo sapiens; conditions: Homo sapiens, Rh18;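 further: growth inhibition of human RH-18 cells, read out with a cell viability assay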
Description: SANGER: Inhibition of human RH-18 cell growth in a cell viability assay.

[27] = system: SW 1116; test: cells; assay type: functional, cell-based, Homo sapiens; conditions: Homo sapiens, SW 1116;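 further: growth inhibition of SW1116 cells, read out with a cell viability assay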
Description: SANGER: Inhibition of human SW1116 cell growth in a cell viability assay.

[28] = system: SW48; test: cells; assay type: functional, cell-based, Homo sapiens; conditions: Homo sapiens, SW48;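 further: growth inhibition of SW48 cells, read out with a cell viability assay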
Description: SANGER: Inhibition of human SW48 cell growth in a cell viability assay.

[29] = system: 639-V; test: cells; assay type: functional, cell-based, Homo sapiens; conditions: Homo sapiens, 639-V;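 further: growth inhibition of 639-V cells, read out with a cell viability assay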
Description: SANGER: Inhibition of human 639-V cell growth in a cell viability assay.

[30] = system: 8305C; test: cells; assay type: functional, cell-based, Homo sapiens; conditions: Homo sapiens, 8305C
Description: SANGER: Inhibition of human 8305C cell growth in a cell viability assay.

[31] = system: A-427; test: cells; assay type: functional, cell-based, Homo sapiens; conditions: Homo sapiens, A-427;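 further: growth inhibition of human A-427 cells, read out by a cell viability assay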
Description: SANGER: Inhibition of human A427 cell growth in a cell viability assay.

[32] = system: CAL-120; test: cells; assay type: functional, cell-based, Homo sapiens; conditions: Homo sapiens, CAL-120;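 further: cell growth inhibition, read out as cell viability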
Description: SANGER: Inhibition of human CAL-120 cell growth in a cell viability assay.

[33] = system: TGBC11TKB; test: cells; assay type: functional, cell-based, Homo sapiens; conditions: Homo sapiens, TGBC11TKB;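 further: growth inhibition of human TGBC11TKB cells, measured by a cell viability assay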
Description: SANGER: Inhibition of human TGBC11TKB cell growth in a cell viability assay.

[34] = system: TI-73; test: cells; assay type: functional, cell-based, Homo sapiens; conditions: Homo sapiens, TI-73;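 further: cell viability assay measuring how much compounds suppress growth of the cultured cell line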
Description: SANGER: Inhibition of human TI-73 cell growth in a cell viability assay.

[35] = system: TYK-nu; test: cells; assay type: functional, cell-based, Homo sapiens; conditions: Homo sapiens, TYK-nu;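 further: growth inhibition of human TYK-nu cells, read out by a cell viability assay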
Description: SANGER: Inhibition of human TYK-nu cell growth in a cell viability assay.

[36] = system: U2OS; test: cells; assay type: functional, cell-based, Homo sapiens, U-2-OS; conditions: Homo sapiens, U2OS;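 further: growth inhibition of human U-2-OS cells, determined with a cell viability assay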
Description: SANGER: Inhibition of human U-2-OS cell growth in a cell viability assay.

[37] = system: U-251; test: cells; assay type: functional, cell-based, Homo sapiens; conditions: Homo sapiens, U-251;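 further: growth inhibition of human U-251 cells, read out through a cell viability assay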
Description: SANGER: Inhibition of human U251 cell growth in a cell viability assay.

[38] = system: YH-13; test: cells; assay type: functional, cell-based, Homo sapiens; conditions: Homo sapiens, YH-13;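 further: cell viability readout of growth suppression in the human YH-13 cell line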
Description: SANGER: Inhibition of human YH-13 cell growth in a cell viability assay.

SMILES | IC50 [1] [µM] | IC50 [2] [µM] | IC50 [3] [µM] | IC50 [4] [µM] | IC50 [5] [µM] | IC50 [6] [µM] | IC50 [7] [µM] | IC50 [8] [µM] | IC50 [9] [µM] | IC50 [10] [µM] | IC50 [11] [µM] | IC50 [12] [µM] | IC50 [14] [µM] | IC50 [15] [µM] | IC50 [16] [µM] | IC50 [17] [µM] | IC50 [19] [µM] | IC50 [20] [µM] | IC50 [21] [µM] | IC50 [22] [µM] | other results
COc1cc2ncn(-c3cc(OCc4ccccc4C(F)(F)F)c(C(N)=O)s3)c2cc1OC [GW843682X] | > 0.256 | > 0.256 | 0.0354 | > 0.256 | > 0.256 | > 0.256 | > 0.256 | > 0.256 | 0.036 | – | – | – | – | – | – | – | – | – | – | – | –
Cc1ccc(-c2c(C(=O)CCl)n(CCCO)c3ncnc(N)c23)cc1 | > 4 | > 4 | > 4 | > 4 | > 4 | > 4 | > 4 | > 4 | > 4 | – | – | – | – | – | – | – | – | – | – | – | –
COc1cc2c(Nc3ccc(NC(=O)c4ccccc4)cc3)ncnc2cc1OCCCN1CCOCC1 | – | – | – | – | 1.75 | – | – | – | – | > 4 | > 4 | 0.93 | > 4 | 2.66 | > 4 | > 4 | > 4 | > 4 | > 4 | > 4 | IC50 [13]: > 4 µM; IC50 [18]: > 4 µM; IC50 [23]: > 4 µM; IC50 [24]: > 4 µM; IC50 [25]: > 4 µM; IC50 [26]: > 4 µM; IC50 [27]: > 4 µM; IC50 [28]: 1.23 µM; IC50 [29]: > 4 µM; IC50 [30]: > 4 µM; IC50 [31]: > 4 µM; IC50 [32]: > 4 µM; IC50 [33]: > 4 µM; IC50 [34]: > 4 µM; IC50 [35]: > 4 µM; IC50 [36]: > 4 µM; IC50 [37]: > 4 µM; IC50 [38]: > 4 µM
C#Cc1cccc(Nc2ncnc3cc(OCCOC)c(OCCOC)cc23)c1 [ERLOTINIB] | > 2 | > 2 | > 2 | > 2 | > 2 | > 2 | > 2 | > 2 | > 2 | – | – | – | – | – | – | – | – | – | – | – | –
COc1cc2ncn(-c3cc(OCc4ccccc4S(C)(=O)=O)c(C#N)s3)c2cc1OC [GSK-319347A] | > 5 | > 5 | > 5 | > 5 | > 5 | > 5 | > 5 | > 5 | > 5 | – | – | – | – | – | – | – | – | – | – | – | –
CC1(C)CNc2cc(NC(=O)c3cccnc3NCc3ccncc3)ccc21 [MOTESANIB] | – | – | – | – | > 2 | – | – | – | – | > 2 | > 2 | > 2 | > 2 | > 2 | > 2 | > 2 | > 2 | > 2 | > 2 | > 2 | IC50 [13]: > 2 µM; IC50 [18]: > 2 µM; IC50 [23]: > 2 µM; IC50 [24]: > 2 µM; IC50 [25]: > 2 µM; IC50 [26]: > 2 µM; IC50 [27]: > 2 µM; IC50 [28]: > 2 µM; IC50 [29]: > 2 µM; IC50 [30]: > 2 µM; IC50 [31]: > 2 µM; IC50 [32]: > 2 µM; IC50 [33]: > 2 µM; IC50 [34]: > 2 µM; IC50 [35]: > 2 µM; IC50 [36]: > 2 µM; IC50 [37]: > 2 µM; IC50 [38]: > 2 µM
Cn1cnc2c(F)c(Nc3ccc(Br)cc3Cl)c(C(=O)NOCCO)cc21 [SELUMETINIB] | – | – | – | – | > 4 | – | – | – | – | 3.96 | > 4 | 0.0229 | 3.42 | > 4 | > 4 | > 4 | > 4 | 0.762 | > 4 | > 4 | IC50 [23]: > 4 µM; IC50 [24]: > 4 µM; IC50 [25]: > 4 µM; IC50 [26]: > 4 µM; IC50 [27]: > 4 µM; IC50 [28]: > 4 µM; IC50 [29]: > 4 µM; IC50 [30]: > 4 µM; IC50 [31]: > 4 µM; IC50 [32]: > 4 µM; IC50 [33]: > 4 µM; IC50 [34]: > 4 µM; IC50 [35]: > 4 µM; IC50 [36]: > 4 µM; IC50 [37]: > 4 µM; IC50 [38]: > 4 µM

From ChEMBL document CHEMBL1201861, “Genomics of Drug Sensitity in Cancer screening data, Wellcome Trust Sanger Institute”
